Laboratory results as given in US20220153751A1, “BIFUNCTIONAL COMPOUNDS” (BioTheryX, Inc., priority 2018, published 2022).

What was measured:
Type in all cases: cell-based
GSPT1 = molecular target: T1, GSPT1 (Homo sapiens, UniProt P15170+Q96SW2); assay: GSPT1 degradation assay (Western blot, MV-4-11 cells); conditions: MV4-11, 6-8 h
T1 construct: Whole cell extracts were prepared using RIPA buffer; endogenous in cells; host or cells: MV-4-11
In short: (§1)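 MV-4-11 cells (~10^6 cells/mL, RPMI 1640 with 10% FBS) were treated with compound or DMSO for 6-8 h. RIPA whole-cell lysates were run on SDS-PAGE, immunoblotted and detected with IRDye secondaries. % degradation is binned (<25%, 25–50%, 50–75%, ≥75%); CDK9 and CDK16 were tested at two concentrations.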

CDK16 = molecular target: T2, CDK16 (Homo sapiens, UniProt Q00536); assay: CDK16 degradation assay (Western blot, MV-4-11 cells); conditions: 6-8 h; for Dmax at 0.1 µM: MV4-11, 0.1 μM; for Dmax at 1 µM: MV4-11, 1 μM
T2 construct: Whole cell extracts were prepared using RIPA buffer; endogenous in cells; host or cells: MV-4-11
T2 sequence (Q00536 whole entry): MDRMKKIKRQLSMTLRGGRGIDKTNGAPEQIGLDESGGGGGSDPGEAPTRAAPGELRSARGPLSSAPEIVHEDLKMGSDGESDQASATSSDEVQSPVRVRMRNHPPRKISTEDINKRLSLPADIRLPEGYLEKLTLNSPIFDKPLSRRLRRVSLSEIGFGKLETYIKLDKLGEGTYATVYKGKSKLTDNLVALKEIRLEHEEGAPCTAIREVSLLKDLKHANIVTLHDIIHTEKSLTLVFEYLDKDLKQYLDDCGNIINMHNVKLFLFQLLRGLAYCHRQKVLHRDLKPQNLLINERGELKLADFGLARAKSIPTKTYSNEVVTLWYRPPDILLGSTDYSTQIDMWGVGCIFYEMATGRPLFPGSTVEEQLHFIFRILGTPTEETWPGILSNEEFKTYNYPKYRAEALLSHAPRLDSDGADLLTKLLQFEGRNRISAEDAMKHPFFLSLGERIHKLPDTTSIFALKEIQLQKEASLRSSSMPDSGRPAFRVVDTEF
In short: as §1

MOLM-13 cells = assay: MOLM-13 cell viability assay (CellTiter-Glo); conditions: Homo sapiens, MOLM-13, 72 h, 3 days, read-out: MOLM-13 Cell Viability % DMSO at 1 μM
In short: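 MOLM-13 cells at 2500 cells/well were exposed to compound for 3 days at 37 °C. Viability was read by CellTiter-Glo luminescence and expressed as % of DMSO control, binned A (<50%), B (50–<70%), C (70–<90%) or D (≥90%).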

CK1α = molecular target: T3, CK1α (Homo sapiens, UniProt P48729+Q96SW2); assay: CK1α degradation assay (Western blot, MV-4-11 cells); conditions: MV4-11, 6-8 h
T3 construct: Whole cell extracts were prepared using RIPA buffer; endogenous in cells; host or cells: MV-4-11
T3 sequence (P48729 whole entry): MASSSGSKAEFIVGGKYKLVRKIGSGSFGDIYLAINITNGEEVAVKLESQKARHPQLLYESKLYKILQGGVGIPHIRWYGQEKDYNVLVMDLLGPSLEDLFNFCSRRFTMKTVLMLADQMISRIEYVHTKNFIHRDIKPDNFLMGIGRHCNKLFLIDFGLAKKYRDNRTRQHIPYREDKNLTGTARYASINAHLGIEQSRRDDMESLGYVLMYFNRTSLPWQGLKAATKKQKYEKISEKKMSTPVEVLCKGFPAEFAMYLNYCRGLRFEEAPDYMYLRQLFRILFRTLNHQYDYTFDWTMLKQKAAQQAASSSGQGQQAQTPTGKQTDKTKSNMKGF
T3 sequence (Q96SW2 whole entry): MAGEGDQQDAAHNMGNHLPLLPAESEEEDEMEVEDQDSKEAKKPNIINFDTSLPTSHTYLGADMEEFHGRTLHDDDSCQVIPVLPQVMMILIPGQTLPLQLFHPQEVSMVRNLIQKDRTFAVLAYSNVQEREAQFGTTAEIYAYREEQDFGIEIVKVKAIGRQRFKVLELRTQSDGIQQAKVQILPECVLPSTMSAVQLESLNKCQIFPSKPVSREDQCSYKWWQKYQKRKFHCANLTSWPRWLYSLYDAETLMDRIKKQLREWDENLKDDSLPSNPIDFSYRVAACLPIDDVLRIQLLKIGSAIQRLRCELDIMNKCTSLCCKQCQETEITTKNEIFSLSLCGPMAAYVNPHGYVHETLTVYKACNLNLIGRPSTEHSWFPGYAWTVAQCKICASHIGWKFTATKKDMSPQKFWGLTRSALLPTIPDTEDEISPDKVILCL
T3 sequence (Q16531 whole entry partner): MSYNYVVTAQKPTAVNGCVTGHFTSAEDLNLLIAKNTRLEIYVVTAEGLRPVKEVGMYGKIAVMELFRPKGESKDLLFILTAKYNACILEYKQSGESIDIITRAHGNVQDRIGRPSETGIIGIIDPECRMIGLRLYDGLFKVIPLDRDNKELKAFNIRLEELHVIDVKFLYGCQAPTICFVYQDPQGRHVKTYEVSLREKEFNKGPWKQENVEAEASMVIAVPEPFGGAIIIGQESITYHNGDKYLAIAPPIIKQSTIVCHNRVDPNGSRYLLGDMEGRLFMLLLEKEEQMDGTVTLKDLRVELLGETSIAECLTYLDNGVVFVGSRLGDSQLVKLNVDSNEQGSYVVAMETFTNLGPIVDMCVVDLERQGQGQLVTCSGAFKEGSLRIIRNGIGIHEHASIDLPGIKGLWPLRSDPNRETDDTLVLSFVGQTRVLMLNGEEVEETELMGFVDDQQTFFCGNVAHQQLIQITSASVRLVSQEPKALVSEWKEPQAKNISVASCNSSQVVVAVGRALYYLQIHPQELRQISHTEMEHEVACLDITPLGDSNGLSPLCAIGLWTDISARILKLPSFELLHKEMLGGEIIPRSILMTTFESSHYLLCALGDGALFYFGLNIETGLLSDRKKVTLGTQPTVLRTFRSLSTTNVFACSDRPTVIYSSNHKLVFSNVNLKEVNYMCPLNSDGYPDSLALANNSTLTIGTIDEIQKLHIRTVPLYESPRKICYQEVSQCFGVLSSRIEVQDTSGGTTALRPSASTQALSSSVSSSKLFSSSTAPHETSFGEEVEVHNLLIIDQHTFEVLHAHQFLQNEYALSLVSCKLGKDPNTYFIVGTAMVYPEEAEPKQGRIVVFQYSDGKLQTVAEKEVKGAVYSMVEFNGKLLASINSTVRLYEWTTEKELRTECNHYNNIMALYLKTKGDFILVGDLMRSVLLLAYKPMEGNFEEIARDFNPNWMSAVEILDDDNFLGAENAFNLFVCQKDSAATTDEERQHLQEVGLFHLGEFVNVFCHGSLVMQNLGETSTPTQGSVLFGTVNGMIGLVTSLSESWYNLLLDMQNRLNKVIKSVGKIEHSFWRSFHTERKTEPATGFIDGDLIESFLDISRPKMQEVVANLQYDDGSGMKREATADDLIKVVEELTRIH
Method: MV-4-11 cells were grown in RPMI 1640 media supplemented with 10% fetal bovine serum, streptomycin and penicillin.
Cells were cultured at approximately 10^6 cells per mL and incubated in DMSO or the indicated compound for 6-8 h. Whole cell extracts were prepared using RIPA buffer according to manufacturer's protocol (Pierce). Briefly, 3×10^6 cells were washed once in PBS, the cell pellets were resuspended in RIPA buffer and allowed to incubate for 15 minutes on ice. Cells debris was removed by centrifugation and the cleared whole cell lysates were transferred to new tubes for further analysis.
For Western blot analysis, whole cell protein extracts were separated on 4-12% SDS-polyacrylamide gels, transferred to nitrocellulose and probed with the indicated primary antibodies. Membranes were subsequently washed and probed with the appropriate IRDye secondary antibodies (LI-COR). The signal was detected using the Odyssey Imaging System (LI-COR).
The following antibodies were used in these studies: Anti-eRF3/GSPT1: Abcam, ab126090 (Cambridge, Mass.); Anti-Ikaros: Abcam, ab191394 (Cambridge, Mass.); Anti-CK1α: Abcam, ab108296 (Cambridge, Mass.); Anti-CDK9: Santa Cruz Biotechnology, sc13130 (Dallas, Tex.); Anti-CDK16: Millipore Sigma, HPA001366 (St. Louis, Mo.); 3-actin (8H10comD10) mouse monoclonal antibody: Cell Signaling Technology, #3700 (Danvers, Mass.); IRDye 680RD Goat anti-rabbit antibody: LI-COR, 926-68071 (Lincoln, Nebr.); IRDye 800CW Goat anti-mouse antibody: LI-COR, 926-32210 (Lincoln, Nebr.).
CDK9 activities are shown in Table 4 at two different concentrations. CDK16 activities are shown in Table 5 at two different concentrations. In each of Tables 1-5, the % degradation values are reported as “A”, “B”, “C”, or “D”. “A” represents a % degradation value of less than 25% (value <25%). “B” represents a % degradation value of equal to or more than 25% and less than 50% (25%≤value<50%). “C” represents a % degradation value of equal to or more than 50% and less than 75% (50%≤value<75%). “D” represents a % degradation value of equal to or more than 75% (value ≥75%).

CDK9 = molecular target: T4, CDK9 (Homo sapiens, UniProt P50750); assay: CDK9 degradation assay (Western blot, MV-4-11 cells); conditions: 6-8 h; for Dmax at 0.1 µM: MV4-11, 0.1 μM; for Dmax at 1 µM: MV4-11, 1 μM
T4 construct: Whole cell extracts were prepared using RIPA buffer; endogenous in cells; host or cells: MV-4-11
T4 sequence (P50750 whole entry): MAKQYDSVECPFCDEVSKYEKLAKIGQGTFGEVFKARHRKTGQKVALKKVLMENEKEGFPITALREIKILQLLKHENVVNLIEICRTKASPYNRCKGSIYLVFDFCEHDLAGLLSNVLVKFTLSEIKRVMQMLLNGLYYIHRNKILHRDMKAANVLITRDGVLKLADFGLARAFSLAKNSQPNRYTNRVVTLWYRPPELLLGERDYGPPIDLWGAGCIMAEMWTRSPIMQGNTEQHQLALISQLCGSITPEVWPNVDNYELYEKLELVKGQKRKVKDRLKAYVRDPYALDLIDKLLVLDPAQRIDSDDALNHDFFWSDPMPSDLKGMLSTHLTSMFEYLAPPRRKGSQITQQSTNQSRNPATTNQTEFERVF
In short: as §1

IKAROS = molecular target: T5, IKAROS (Homo sapiens, UniProt Q13422+Q96SW2); assay: IKAROS degradation assay (Western blot, MV-4-11 cells); conditions: MV4-11, 6-8 h
T5 construct: endogenous in cells; host or cells: MV-4-11
T5 sequence (Q13422 whole entry): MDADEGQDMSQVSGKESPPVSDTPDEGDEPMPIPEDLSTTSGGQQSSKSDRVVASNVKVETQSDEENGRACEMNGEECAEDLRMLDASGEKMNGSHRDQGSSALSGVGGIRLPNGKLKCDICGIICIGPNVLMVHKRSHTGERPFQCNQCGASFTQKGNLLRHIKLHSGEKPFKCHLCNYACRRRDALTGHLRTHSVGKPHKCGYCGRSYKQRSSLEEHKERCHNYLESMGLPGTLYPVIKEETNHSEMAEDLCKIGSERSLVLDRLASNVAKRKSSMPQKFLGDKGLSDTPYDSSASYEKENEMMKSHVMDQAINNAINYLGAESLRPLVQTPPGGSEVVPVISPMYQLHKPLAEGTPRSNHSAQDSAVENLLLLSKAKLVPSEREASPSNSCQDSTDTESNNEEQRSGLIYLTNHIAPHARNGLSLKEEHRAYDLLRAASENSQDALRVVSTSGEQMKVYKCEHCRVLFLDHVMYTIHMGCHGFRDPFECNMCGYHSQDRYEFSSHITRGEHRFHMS
T5 sequence (Q96SW2 whole entry): as the sequence (Q96SW2 whole entry) above
T5 sequence (Q16531 whole entry partner): as the sequence (Q16531 whole entry partner) above
In short: as §1

TNF-α = TNF-α inhibition assay, LPS-induced PBMCs / CD14+ monocytes (Meso Scale); conditions: 1 h pretreatment, 100 ng/mL LPS 18-24 h
In short: (§2)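 Thawed human PBMCs or CD14+ mobilized peripheral blood monocytes, 200,000 cells/well in RPMI-1640/10% FBS, pretreated with compound or DMSO 1 h, then stimulated with 100 ng/mL LPS for 18-24 h. Supernatant cytokine measured by Meso Scale; % inhibition binned A–D (<50%, 50–70%, 70–90%, ≥90%), fold-change binned A–D (≤0.1, ≤0.5, ≤1, >1).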

IL-6 = IL-6 inhibition assay, LPS-induced PBMCs / CD14+ monocytes (Meso Scale); conditions: 1 h pretreatment, 100 ng/mL LPS 18-24 h
In short: as §2

IL-2 = IL-2 fold-change assay, anti-CD3 stimulated PBMCs (Mesoscale); conditions: PBMC, PBMCs on anti-human CD3, 24 h, fold difference from the DMSO control
Method: For the IL-2 analysis, 96 well plates were precoated with 1 μg/mL anti-human CD3 antibody (OK3, eBioscience Inc., San Diego, Calif.). After washing with PBS, the indicated compound was added (50 μL/well) followed by PBMCs diluted at 3-4 million cells/mL (150 μL/well). Plates were incubated for 24 h and the supernatants collected for Mesoscale IL-2 analysis. IL-2 activity is measured as fold difference from the DMSO control.
In Table 6, the % inhibition values are reported as “A”, “B”, “C”, or “D”. “A” represents a % inhibition value of less than 50% (value <50%). “B” represents a % inhibition value of equal to or more than 50% and less than 70% (50%≤value<70%). “C” represents a % inhibition value of equal to or more than 70% and less than 90% (70%≤value<90%). “D” represents a % inhibition value of equal or more than 90% (value ≥90%). In Table 7, the fold-change values are reported as “A”, “B”, “C”, or “D”. “A” represents a fold-change value of equal to or less than 0.1 (value ≤0.1). “B” represents a fold-change value of more than 0.1 and equal to or less than 0.5 (0.1<value≤0.5). “C” represents a fold-change value of more than 0.5 and equal to or less than 1 (0.5<value≤1). “D” represents a fold-change value of more than 1 (value >1).

IL-1β = IL-1β inhibition assay, LPS-induced PBMCs / CD14+ monocytes (Meso Scale); conditions: 1 h pretreatment, 100 ng/mL LPS 18-24 h
In short: as §2

T1 sequence (P15170 whole entry): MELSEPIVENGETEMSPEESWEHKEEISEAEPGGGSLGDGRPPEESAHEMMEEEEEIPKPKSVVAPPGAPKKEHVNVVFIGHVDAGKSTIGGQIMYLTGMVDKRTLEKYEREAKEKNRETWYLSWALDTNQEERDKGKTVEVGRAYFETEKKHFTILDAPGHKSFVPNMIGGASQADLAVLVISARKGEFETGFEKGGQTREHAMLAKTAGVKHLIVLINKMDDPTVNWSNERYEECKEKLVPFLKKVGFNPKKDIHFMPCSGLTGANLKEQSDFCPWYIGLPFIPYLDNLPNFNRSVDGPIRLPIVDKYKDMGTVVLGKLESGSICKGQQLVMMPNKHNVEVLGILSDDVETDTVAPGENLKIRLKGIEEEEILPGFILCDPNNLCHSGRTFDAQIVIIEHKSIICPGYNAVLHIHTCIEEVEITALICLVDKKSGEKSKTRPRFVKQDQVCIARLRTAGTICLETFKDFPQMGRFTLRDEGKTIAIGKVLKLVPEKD
T1 sequence (Q96SW2 whole entry): as the sequence (Q96SW2 whole entry) above
T1 sequence (Q16531 whole entry partner): as the sequence (Q16531 whole entry partner) above

SMILES	Dmax at 1 µM (GSPT1) [%]	Dmax at 0.1 µM (CDK16) [%]	Dmax at 1 µM (CDK16) [%]	Dmax at 1 µM (CK1α) [%]	Dmax at 0.1 µM (CDK9) [%]	Dmax at 1 µM (CDK9) [%]	Dmax at 1 µM (IKAROS) [%]	viability at 1 µM (MOLM-13 cells) [%]	inhibition at 1 µM (TNF-α) [%]	inhibition at 1 µM (IL-6) [%]	fold induction at 1 µM (IL-2)	inhibition at 1 µM (IL-1β) [%]
CC(C)(C)c1cnc(CSc2cnc(NC(=O)C3CCN(CC(=O)NCCCCCNCC(=O)NCc4scc5c4CN(C4CCC(=O)NC4=O)C5=O)CC3)s2)o1 (centres unmarked) [Compound 33, N-(5-(((5-(tert-butyl)oxazol-2-yl)methyl)thio)thiazol-2-yl)-1-(2-((5-((2-(((5-(2,6-dioxopiperidin-3-yl)-4-oxo-5,6-dihydro-4H-thieno[3,4-c]pyrrol-1-yl)methyl)amino)-2-oxoethyl)amino)pentyl)amino)-2-oxoethyl)piperidine-4-carboxamide]	≥ 75	< 25	50 to 75	≥ 75	≥ 75	≥ 75	50 to 75	> 90	–	–	–	–
Cn1ncc(-c2nc(N[C@H]3CC[C@H](NCC(=O)NCCCCNCC(=O)NCc4scc5c4CN(C4CCC(=O)NC4=O)C5=O)CC3)ncc2F)c1CC1CC1 (some centres unmarked) [Compound 39, 2-(((1r,4r)-4-((4-(5-(cyclopropylmethyl)-1-methyl-1H-pyrazol-4-yl)-5-fluoropyrimidin-2-yl)amino)cyclohexyl)amino)-N-(4-((2-(((5-(2,6-dioxopiperidin-3-yl)-4-oxo-5,6-dihydro-4H-thieno[3,4-c]pyrrol-1-yl)methyl)amino)-2-oxoethyl)amino)butyl)acetamide]	50 to 75	< 25	≥ 75	25 to 50	25 to 50	≥ 75	25 to 50	> 90	–	–	–	–
Cn1ncc(-c2nc(N[C@H]3CC[C@H](NCC(=O)NCCOCCOCCOCCNC(=O)NCc4cc5c(s4)C(=O)N(C4CCC(=O)NC4=O)C5)CC3)ncc2Cl)c1CC1CC1 (some centres unmarked) [Compound 46, 2-(((1r,4r)-4-((5-chloro-4-(5-(cyclopropylmethyl)-1-methyl-1H-pyrazol-4-yl)pyrimidin-2-yl)amino)cyclohexyl)amino)-N-(1-(5-(2,6-dioxopiperidin-3-yl)-6-oxo-5,6-dihydro-4H-thieno[2,3-c]pyrrol-2-yl)-3-oxo-7,10,13-trioxa-2,4-diazapentadecan-15-yl)acetamide]	–	–	–	–	–	–	–	> 90	50 to 70	70 to 90	0.1 to 0.5	70 to 90
CC(C)(C)c1cnc(CSc2cnc(NC(=O)C3CCN(CC(=O)NCCCNCC(=O)NCc4cc5c(s4)C(=O)N(C4CCC(=O)NC4=O)C5)CC3)s2)o1 (centres unmarked) [Compound 52, N-(5-(((5-(tert-butyl)oxazol-2-yl)methyl)thio)thiazol-2-yl)-1-(2-((3-((2-(((5-(2,6-dioxopiperidin-3-yl)-6-oxo-5,6-dihydro-4H-thieno[2,3-c]pyrrol-2-yl)methyl)amino)-2-oxoethyl)amino)propyl)amino)-2-oxoethyl)piperidine-4-carboxamide]	50 to 75	–	–	25 to 50	–	–	25 to 50	> 90	–	–	–	–
Cn1ncc(-c2nc(N[C@H]3CC[C@H](NCCOCCOCCOCCOCCNc4cccc5c4C(=O)N(C4CCC(=O)NC4=O)C5=O)CC3)ncc2Cl)c1CC1CC1 (some centres unmarked) [Compound 64, 4-((14-(((1r,4r)-4-((5-chloro-4-(5-(cyclopropylmethyl)-1-methyl-1H-pyrazol-4-yl)pyrimidin-2-yl)amino)cyclohexyl)amino)-3,6,9,12-tetraoxatetradecyl)amino)-2-(2,6-dioxopiperidin-3-yl)isoindoline-1,3-dione]	≥ 75	–	–	25 to 50	–	–	≥ 75	> 90	–	–	–	–

Further lines, with some results ahead:

Dmax at 1 µM (GSPT1) [%]	Dmax at 0.1 µM (CDK16) [%]	Dmax at 1 µM (CDK16) [%]	Dmax at 1 µM (CK1α) [%]	Dmax at 0.1 µM (CDK9) [%]	Dmax at 1 µM (CDK9) [%]	Dmax at 1 µM (IKAROS) [%]	SMILES	viability at 1 µM (MOLM-13 cells) [%]	inhibition at 1 µM (TNF-α) [%]	inhibition at 1 µM (IL-6) [%]	fold induction at 1 µM (IL-2)	inhibition at 1 µM (IL-1β) [%]
50 to 75	25 to 50	50 to 75	< 25	50 to 75	50 to 75	50 to 75	Cn1ncc(-c2nc(N[C@H]3CC[C@H](NCC(=O)NCCCCCNCC(=O)NCc4cc5c(s4)C(=O)N(C4CCC(=O)NC4=O)C5)CC3)ncc2Cl)c1CC1CC1 (some centres unmarked) [Compound 30, 2-(((1r,4r)-4-((5-chloro-4-(5-(cyclopropylmethyl)-1-methyl-1H-pyrazol-4-yl)pyrimidin-2-yl)amino)cyclohexyl)amino)-N-(5-((2-(((5-(2,6-dioxopiperidin-3-yl)-6-oxo-5,6-dihydro-4H-thieno[2,3-c]pyrrol-2-yl)methyl)amino)-2-oxoethyl)amino)pentyl)acetamide]	> 90	–	–	–	–
≥ 75	< 25	50 to 75	25 to 50	25 to 50	25 to 50	50 to 75	Cn1ncc(-c2nc(N[C@H]3CC[C@H](NCC(=O)NCCCCNCC(=O)NCc4cc5c(s4)C(=O)N(C4CCC(=O)NC4=O)C5)CC3)ncc2Cl)c1CC1CC1 (some centres unmarked) [Compound 35, 2-(((1r,4r)-4-((5-chloro-4-(5-(cyclopropylmethyl)-1-methyl-1H-pyrazol-4-yl)pyrimidin-2-yl)amino)cyclohexyl)amino)-N-(4-((2-(((5-(2,6-dioxopiperidin-3-yl)-6-oxo-5,6-dihydro-4H-thieno[2,3-c]pyrrol-2-yl)methyl)amino)-2-oxoethyl)amino)butyl)acetamide]	> 90	–	–	–	–
≥ 75	25 to 50	50 to 75	25 to 50	50 to 75	≥ 75	50 to 75	Cn1ncc(-c2nc(N[C@H]3CC[C@H](NCC(=O)NCCNCC(=O)NCc4cc5c(s4)C(=O)N(C4CCC(=O)NC4=O)C5)CC3)ncc2Cl)c1CC1CC1 (some centres unmarked) [Compound 40, 2-(((1r,4r)-4-((5-chloro-4-(5-(cyclopropylmethyl)-1-methyl-1H-pyrazol-4-yl)pyrimidin-2-yl)amino)cyclohexyl)amino)-N-(2-((2-(((5-(2,6-dioxopiperidin-3-yl)-6-oxo-5,6-dihydro-4H-thieno[2,3-c]pyrrol-2-yl)methyl)amino)-2-oxoethyl)amino)ethyl)acetamide]	70 to 90	–	–	–	–
